In PubChem BioAssay AID1159565 (GlaxoSmithKline (GSK), 2015) one finds IC50 data, which are given here for 28 compounds.

Calls of active or inactive are those of the source. The rule behind the calls is not given here. Where only a bound is given, the exact number is not on record here.

The assay deals with T. cruzi-infected H9C2 cardiomyocytes, high-content imaging. Put plainly: anti-T. cruzi activity in infected cardiomyocytes – imaging, H9C2 host cardiomyocytes, host toxicity (AID 1159565).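 Note: infected cells incubated 72 h after plating.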
Where [1] appears, read: measured here: H9C2 host cell toxicity.
Where [2] appears, read: measured here: amastigotes per cell.

What is called IC50 is the concentration at which inhibition is half-maximal. In the case of `COc1cccc(-c2c(C)nn(-c3nc(N)nc(-c4ccccn4)n3)c2N)c1`, the IC50 was 2000 nM. The concentration for half-maximal inhibition (IC50) under setting [1] is over 50000 nM. For the same compound, the IC50 under setting [2] turned out to be 500 nM.
Turning to `O=C(Cc1ccccc1)Nc1[nH]nc2sc(C(=O)NC3CCCC3)cc12`, the half-inhibitory concentration (IC50) is 13000 nM. This compound also gave a concentration for half-maximal inhibition (IC50) under setting [1] of 1300 nM. Besides, the IC50 under setting [2] was determined as 6300 nM.
For `CN(Cc1nnnn1C1CCN(Cc2ccc(-n3ccnc3)cc2)CC1)c1ccc(F)cc1F` the same measures were 320 nM, over 50000 nM and 320 nM.
Take `COc1cccc(-c2cc(C(F)(F)F)nc(-n3ccc([N+](=O)[O-])n3)n2)c1`: the IC50 is 400 nM. The IC50 under setting [1] was over 50000 nM. This compound returned an IC50 under setting [2] of 200 nM.
The matching figures for `O=[N+]([O-])c1cccc(Nc2cncc(-c3ccccc3CO)c2)c1`: 400 nM, over 50000 nM and 250 nM.
`CN(C)CCN(C)Cc1ccc(F)cc1NS(=O)(=O)c1ccc(Cl)c(Cl)c1`: the IC50 is 2500 nM. This compound displayed an IC50 under setting [1] of 6300 nM. The compound further gave an IC50 under setting [2] of 2000 nM.
In the case of `O=S(=O)(NCC(c1cccnc1)N1CCN(c2ccc(F)cc2)CC1)c1cccs1` (centres undefined), the IC50 was 130 nM. Further, under setting [1], the IC50 was over 50000 nM. The compound further returned an IC50 under setting [2] of 130 nM.
Consider `N#Cc1ccc(S(=O)(=O)N2CCC3(CCN(c4ccccc4)C3=O)CC2)cc1`, for which the IC50 was 1000 nM. For the same compound, the IC50 under setting [1] is over 50000 nM. The compound further yielded an IC50 under setting [2] of 630 nM.
For `CC(=O)NCCNc1cc(-c2ccnc(Nc3cccc(Cl)c3)n2)ccn1` the same measures were 1600 nM, 400 nM and 160 nM.
Consider `O=C(c1ccc(Cl)cc1)c1ccc(OC(=O)N2CCOCC2)cc1`, for which the IC50 was > 50000 nM (inactive). Further, under setting [1], the IC50 was over 50000 nM. Further, under setting [2], the IC50 was determined as 6300 nM.
The matching figures for `O=C(CN1CCN(S(=O)(=O)c2cccc([N+](=O)[O-])c2)CC1)Nc1ccc(Oc2ccccc2)cc1`: 2500 nM, over 50000 nM and 1300 nM.
As for `COc1ccccc1CNc1cc(C2CC2)nc(-c2nccn2C)n1`, the IC50 was 790 nM. Under setting [1], this compound yielded an IC50 of 630 nM. Also, the IC50 under setting [2] turned out to be 1000 nM.
The matching figures for `CCC1Oc2cc(S(=O)(=O)N(C)CC(=O)N3CCc4ccccc4C3)c(C)cc2NC1=O` (centres undefined): 250 nM, over 50000 nM and 250 nM.
In the case of `CCOc1ccc(OCC(=O)N2c3ccccc3CC2C(=O)NC)cc1` (centres undefined), the IC50 is > 50000 nM (inactive). This compound had an IC50 under setting [1] of over 50000 nM. Moreover, the IC50 under setting [2] was over 50000 nM.
In the case of `Cc1cc2nc(CN(C)Cc3ncccc3C)[nH]c2cc1C`, the IC50 was 1000 nM. Besides, the IC50 under setting [1] is 13000 nM. Further, the IC50 under setting [2] turned out to be 500 nM.
Consider `O=C(Cc1ccccc1)Nc1ccccc1C(=O)Nc1nccs1`, for which the IC50 was > 50000 nM (inactive). This compound also had an IC50 under setting [1] of over 50000 nM. Also, under setting [2], the IC50 was over 50000 nM.
As for `COc1ccc(C2C3CCCCC3(O)CCN2CC(=O)Nc2ccc(Cl)cc2Cl)cc1` (centres undefined), the IC50 is 1300 nM. Under setting [1], the IC50 came to 20000 nM. For the same compound, under setting [2], the IC50 was 790 nM.
As to `NC(=O)c1ncccc1Nc1nc(NC2CCC(O)CC2)ncc1Br` (centres undefined), the IC50 was 2000 nM. For the same compound, the half-maximal inhibitory concentration (IC50) under setting [1] was 630 nM. Besides, the IC50 under setting [2] was found to be 500 nM.
For the compound `CC(c1ccccn1)N(C)Cc1nc2ccccc2n1C(C)C` (centres undefined), the IC50 is 6300 nM. The compound also returned an IC50 under setting [1] of over 50000 nM. Under setting [2], this compound had a half-maximal inhibitory concentration (IC50) of 2000 nM.
As for `O=C1COC(c2ccccc2)(c2ccccc2)CN1C1CCN(Cc2ccc(-n3ccnc3)cc2)CC1`, the IC50 was 2000 nM. Moreover, the IC50 under setting [1] was 32000 nM. Besides, the IC50 under setting [2] was 500 nM.
`CCCCN(C(=O)c1ccc(NC(=O)C(C)C)cc1)c1ccccc1`: the IC50 is > 50000 nM (inactive). The IC50 under setting [1] is over 50000 nM. Further, the IC50 under setting [2] was found to be 10000 nM.
As for `CCN(CC)S(=O)(=O)c1ccc(Cn2nc(C(=O)Nc3ccncn3)c3ccccc32)cc1`, the IC50 is 400 nM. Moreover, the IC50 under setting [1] came to 25000 nM. Besides, under setting [2], the IC50 stood at 400 nM.
With `COc1ccc2nc(N(Cc3cccnc3)C(=O)C3CCC3)sc2c1`, the IC50 was 130 nM. Moreover, under setting [1], the IC50 was over 50000 nM. Moreover, the IC50 under setting [2] came to 100 nM.
In the case of `Cc1nnnn1-c1cccc(C(=O)N2CCC[C@@]3(C)c4ncncc4CCC23)c1` (some centres undefined), the IC50 is 320 nM. Also, under setting [1], the IC50 is over 50000 nM. In addition, the IC50 under setting [2] was determined as 320 nM.
On to `CCn1nccc1CN(C)C(=O)C=Cc1ccc(Cl)cc1`, for which the IC50 is 320 nM. The half-inhibitory concentration (IC50) under setting [1] was over 50000 nM. Under setting [2], this compound registered an IC50 of 320 nM.
In the case of `COc1cc(-c2nc(N3CCOCC3)sc2-c2ccnc(NC3CCOCC3)n2)ccc1Cl`, the IC50 was 160 nM. For the same compound, the IC50 under setting [1] was over 50000 nM. Also, the IC50 under setting [2] worked out at 100 nM.
As for `Cc1cc(-c2cccc3ccccc23)nc2nc(N)nc(N)c12`, the IC50 is > 50000 nM (inactive). Also, the IC50 under setting [1] was over 50000 nM. For the same compound, the IC50 under setting [2] was 32000 nM.
For `O=C(NCc1nnc2n1CCCCC2)c1csc(-c2ccccc2)n1` the same measures were 2000 nM, over 50000 nM and 2000 nM.
